Where two headings read alike, the source gives them in different places.
Assays:
Assay in all cases: SelectScreen Kinase Profiling, single point inhibition and IC50 for off-target kinases
Type in all cases: biochemical
off-target kinases [1] = target: T1, off-target kinases (Homo sapiens, UniProt P25098); conditions: ADRBK1 (GRK2), ZLYTE, ATP Km app
T1 sequence (P25098 1-689): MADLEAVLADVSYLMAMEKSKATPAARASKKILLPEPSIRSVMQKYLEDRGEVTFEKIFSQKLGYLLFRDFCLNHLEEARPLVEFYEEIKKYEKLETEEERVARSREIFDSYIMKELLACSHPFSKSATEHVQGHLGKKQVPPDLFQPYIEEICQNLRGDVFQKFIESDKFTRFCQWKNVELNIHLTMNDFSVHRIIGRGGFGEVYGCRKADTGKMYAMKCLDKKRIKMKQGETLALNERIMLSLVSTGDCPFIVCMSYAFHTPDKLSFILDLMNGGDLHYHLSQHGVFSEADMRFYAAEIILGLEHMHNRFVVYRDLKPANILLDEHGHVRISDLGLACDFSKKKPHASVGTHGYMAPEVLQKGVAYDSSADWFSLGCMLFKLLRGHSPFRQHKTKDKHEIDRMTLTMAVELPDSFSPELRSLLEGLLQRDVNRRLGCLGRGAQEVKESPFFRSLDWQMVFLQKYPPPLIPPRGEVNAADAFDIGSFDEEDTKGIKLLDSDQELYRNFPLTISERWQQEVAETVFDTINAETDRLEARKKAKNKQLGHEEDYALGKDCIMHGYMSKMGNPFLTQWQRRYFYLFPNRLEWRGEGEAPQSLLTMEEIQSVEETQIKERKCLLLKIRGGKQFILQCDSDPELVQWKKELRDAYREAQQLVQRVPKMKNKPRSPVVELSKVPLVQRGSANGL

off-target kinases [2] = target: off-target kinases (Homo sapiens, UniProt Q08345); conditions: DDR1, LanthaScreen Binding
Chain of off-target kinases (Homo sapiens, UniProt Q08345) (Q08345 19-913): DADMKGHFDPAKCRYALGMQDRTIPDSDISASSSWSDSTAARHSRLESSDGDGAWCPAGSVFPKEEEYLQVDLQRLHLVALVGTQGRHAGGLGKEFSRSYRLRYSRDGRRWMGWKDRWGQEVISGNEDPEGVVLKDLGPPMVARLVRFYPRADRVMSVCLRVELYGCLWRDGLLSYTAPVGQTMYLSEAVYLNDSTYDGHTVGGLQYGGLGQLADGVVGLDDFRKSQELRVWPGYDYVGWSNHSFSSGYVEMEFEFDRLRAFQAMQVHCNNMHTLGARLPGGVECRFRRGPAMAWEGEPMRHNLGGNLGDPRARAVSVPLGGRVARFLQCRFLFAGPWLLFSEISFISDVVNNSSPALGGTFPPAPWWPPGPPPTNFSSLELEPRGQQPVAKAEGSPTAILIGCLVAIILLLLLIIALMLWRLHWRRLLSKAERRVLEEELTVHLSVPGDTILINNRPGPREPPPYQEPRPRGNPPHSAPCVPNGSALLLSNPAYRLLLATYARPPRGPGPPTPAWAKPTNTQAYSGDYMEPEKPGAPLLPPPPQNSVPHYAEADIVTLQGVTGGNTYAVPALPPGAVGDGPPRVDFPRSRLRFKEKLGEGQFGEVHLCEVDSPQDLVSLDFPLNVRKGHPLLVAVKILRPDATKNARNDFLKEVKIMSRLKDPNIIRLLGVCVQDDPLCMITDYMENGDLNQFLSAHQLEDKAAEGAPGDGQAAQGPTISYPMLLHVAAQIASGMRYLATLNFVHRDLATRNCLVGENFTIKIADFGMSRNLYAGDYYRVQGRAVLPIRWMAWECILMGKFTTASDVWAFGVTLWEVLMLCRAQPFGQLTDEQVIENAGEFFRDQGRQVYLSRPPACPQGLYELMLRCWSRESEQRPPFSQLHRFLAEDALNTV

off-target kinases [3] = target: off-target kinases (Homo sapiens, UniProt O75914); conditions: PAK3, ZLYTE, ATP Km app
Chain of off-target kinases (Homo sapiens, UniProt O75914) (O75914 whole entry): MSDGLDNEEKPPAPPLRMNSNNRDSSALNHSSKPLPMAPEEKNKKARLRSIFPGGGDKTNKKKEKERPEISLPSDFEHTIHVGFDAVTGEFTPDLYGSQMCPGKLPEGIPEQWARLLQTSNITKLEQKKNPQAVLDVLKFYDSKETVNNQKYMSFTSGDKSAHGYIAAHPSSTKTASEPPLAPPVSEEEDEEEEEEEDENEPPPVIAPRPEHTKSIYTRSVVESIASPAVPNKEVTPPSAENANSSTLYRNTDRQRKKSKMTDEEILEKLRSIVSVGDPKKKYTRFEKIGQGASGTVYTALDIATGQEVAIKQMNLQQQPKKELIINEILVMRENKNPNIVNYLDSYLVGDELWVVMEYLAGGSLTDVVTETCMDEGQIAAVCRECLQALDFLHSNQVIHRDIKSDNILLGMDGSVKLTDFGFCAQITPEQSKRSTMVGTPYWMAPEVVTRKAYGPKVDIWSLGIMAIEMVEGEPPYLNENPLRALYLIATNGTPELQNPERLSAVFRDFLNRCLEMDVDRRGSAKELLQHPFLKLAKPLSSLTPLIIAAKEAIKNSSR

off-target kinases [4] = target: T2, off-target kinases (Homo sapiens, UniProt Q13873); conditions: BMPR2, LanthaScreen Binding
T2 sequence (Q13873 27-1038): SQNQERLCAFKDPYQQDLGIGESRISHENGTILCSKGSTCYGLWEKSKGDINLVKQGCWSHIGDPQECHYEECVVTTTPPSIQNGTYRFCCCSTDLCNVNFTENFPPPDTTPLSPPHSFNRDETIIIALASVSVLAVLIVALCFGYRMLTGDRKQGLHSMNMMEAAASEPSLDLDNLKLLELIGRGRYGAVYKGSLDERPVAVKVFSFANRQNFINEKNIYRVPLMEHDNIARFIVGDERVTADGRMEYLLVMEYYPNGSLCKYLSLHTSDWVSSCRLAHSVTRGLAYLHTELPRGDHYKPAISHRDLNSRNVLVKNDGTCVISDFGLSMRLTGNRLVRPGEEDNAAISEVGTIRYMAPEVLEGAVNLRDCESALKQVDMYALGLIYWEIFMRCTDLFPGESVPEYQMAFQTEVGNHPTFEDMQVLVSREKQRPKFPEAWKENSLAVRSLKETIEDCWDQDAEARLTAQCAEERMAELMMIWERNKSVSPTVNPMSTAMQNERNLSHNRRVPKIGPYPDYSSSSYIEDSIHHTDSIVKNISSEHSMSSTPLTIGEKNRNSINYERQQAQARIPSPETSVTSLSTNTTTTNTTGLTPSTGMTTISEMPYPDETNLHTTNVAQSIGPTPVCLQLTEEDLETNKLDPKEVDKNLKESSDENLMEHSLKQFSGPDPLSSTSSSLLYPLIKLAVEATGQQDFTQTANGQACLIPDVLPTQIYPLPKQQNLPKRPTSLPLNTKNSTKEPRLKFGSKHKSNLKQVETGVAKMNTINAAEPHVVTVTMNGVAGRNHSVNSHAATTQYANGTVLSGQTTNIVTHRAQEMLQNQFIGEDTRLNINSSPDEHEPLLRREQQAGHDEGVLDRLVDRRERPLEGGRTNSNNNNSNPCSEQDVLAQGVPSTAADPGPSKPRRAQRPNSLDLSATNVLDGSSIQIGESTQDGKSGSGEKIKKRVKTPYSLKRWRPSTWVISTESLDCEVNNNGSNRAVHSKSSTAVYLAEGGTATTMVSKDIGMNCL

SMILES: N#Cc1cc(-c2ncnc(Nc3ccc(N4CCN(C5COC5)CC4)cc3)n2)ccc1OC1CCOCC1 [Compound 1, 5-(4-((4-(4-(oxetan-3-yl)piperazin-1-yl)phenyl)amino)-1,3,5-triazin-2-yl)-2-((tetrahydro-2H-pyran-4-yl)oxy)benzonitrile]
- inhibition (off-target kinases [1]; read-out: % Inhibition 1): 3%
- inhibition (off-target kinases [1]; read-out: % Inhibition 2): 7%
- inhibition (off-target kinases [1]; read-out: % Inhibition Avg): 5%
- inhibition (off-target kinases [2]; read-out: % Inhibition 1): 3%
- inhibition (off-target kinases [2]; read-out: % Inhibition 2): 2%
- inhibition (off-target kinases [2]; read-out: % Inhibition Avg): 2%
- inhibition (off-target kinases [3]; read-out: % Inhibition 1): 7%
- inhibition (off-target kinases [3]; read-out: % Inhibition 2): 2%
- inhibition (off-target kinases [3]; read-out: % Inhibition Avg): 5%
- inhibition (off-target kinases [4]; read-out: % Inhibition 1): 50%
- inhibition (off-target kinases [4]; read-out: % Inhibition 2): 47%
- inhibition (off-target kinases [4]; read-out: % Inhibition Avg): 49%
